# Earlier results as cited in US20140303128A1, “TRANSMUCOSAL HORMONE DELIVERY SYSTEM” (priority 2013, published 2014).
# Columns and labels:
# [1] = smoking a cigarette (WO 03/055486 A1)
# [2] = pH 6.8
compound,measurement,setting,value
CN1CCCC1c1cccnc1 (centres unmarked) [nicotine],time to peak of plasma nicotine levels,[1],about 10 minutes
same,nicotine in the free base form,[2],about 10%
